Laboratory results reported in ChEMBL document CHEMBL1201862, “PubChem BioAssay data set” (2004).
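Five compound concentrations were applied to cells in 96-well plates for 48 hours; endpoints were derived by simple linear interpolation of the resulting dose-response curve. GI50 marks 50% less growth.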 The source made the active and inactive calls. Rule as the data show it: active = GI50 up to about 1.1 µM and inactive = higher.

Legend:
Assay in all cases: inhibition of tumour cell growth, NCI panel, 48 h
[1] = system: SF-295
[2] = system: SNB-75
[3] = system: RXF 393
[4] = system: OVCAR-4
[5] = system: MOLT-4
[6] = system: NCI-H23
[7] = system: M14
[8] = system: SK-MEL-2
[9] = system: CAKI-1
[10] = system: SK-OV-3
[11] = system: SN12C
[12] = system: HOP-92
[13] = system: OVCAR-8
[14] = system: COLO 205
[15] = system: LOX IMVI
[16] = system: IGROV-1
[17] = system: CCRF-CEM
[18] = system: UO-31
[19] = system: Malme-3M
[20] = system: SF-268

Measured: GI50

O=C1CCC(=O)C1=NNc1ccccc1
inactive: [1] > 100 µM | [2] > 100 µM | [3] > 100 µM | [4] > 100 µM | [5] > 100 µM | [6] > 100 µM | [7] > 100 µM | [8] > 100 µM | [9] > 100 µM | [10] > 100 µM | [11] > 100 µM | [12] > 100 µM | [13] > 100 µM | [14] > 100 µM | [15] > 100 µM | [16] > 100 µM | [17] > 100 µM | [18] > 100 µM | [19] > 100 µM | [20] > 100 µM
